pIC50, pKi: −log10 of the molar value.
How the values were obtained:
[1] = target: intracellular GCN2 (phosphorylation of the GCN2 substrate eIF2α) (Homo sapiens (Human), UniProt Q9P2K8); test: GCN2 Cellular Inhibition Assay (AlphaScreen SureFire P-eIF2α Ser51, borrelidin-treated U2OS cells); format: cell-based; details: 10 μM borrelidin, 1 h, phosphorylated eIF2α Ser51, read-out: GCN2 Biomarker (IC50)
Method in brief: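 U2OS cells adhered overnight, then given compound (top 40 μM, 4-fold serial dilutions) plus 10 μM borrelidin for 1 h at 37 °C. Lysates assayed for eIF2α phospho-Ser51 by AlphaScreen SureFire; % inhibition versus borrelidin-only wells.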

GCN2 kinase = GCN2 kinase (Homo sapiens (Human), UniProt Q9P2K8); test: GCN2 Enzyme Inhibition Assay (Transcreener ADP2 fluorescence polarization); format: biochemical; details: 280 μM ATP, 200 μM (RS)7 peptide, 4 nM GCN2, 25° C.; for pKi: Ki(app)
Method in brief: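 Transcreener ADP2 fluorescence polarization detection of ADP from 4 nM GCN2 with (RS)7 substrate in 25 mM Tris-HCl pH 7.5, 50 mM NaCl, 10 mM MgCl2, 1 mM DTT. Compound pre-incubated with enzyme 10 min at 25 °C; reaction started by ATP, run 1 h at 25 °C. IC50 and Ki(app) by tight-binding fit.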

Sequence of GCN2 kinase (Q9P2K8 whole entry): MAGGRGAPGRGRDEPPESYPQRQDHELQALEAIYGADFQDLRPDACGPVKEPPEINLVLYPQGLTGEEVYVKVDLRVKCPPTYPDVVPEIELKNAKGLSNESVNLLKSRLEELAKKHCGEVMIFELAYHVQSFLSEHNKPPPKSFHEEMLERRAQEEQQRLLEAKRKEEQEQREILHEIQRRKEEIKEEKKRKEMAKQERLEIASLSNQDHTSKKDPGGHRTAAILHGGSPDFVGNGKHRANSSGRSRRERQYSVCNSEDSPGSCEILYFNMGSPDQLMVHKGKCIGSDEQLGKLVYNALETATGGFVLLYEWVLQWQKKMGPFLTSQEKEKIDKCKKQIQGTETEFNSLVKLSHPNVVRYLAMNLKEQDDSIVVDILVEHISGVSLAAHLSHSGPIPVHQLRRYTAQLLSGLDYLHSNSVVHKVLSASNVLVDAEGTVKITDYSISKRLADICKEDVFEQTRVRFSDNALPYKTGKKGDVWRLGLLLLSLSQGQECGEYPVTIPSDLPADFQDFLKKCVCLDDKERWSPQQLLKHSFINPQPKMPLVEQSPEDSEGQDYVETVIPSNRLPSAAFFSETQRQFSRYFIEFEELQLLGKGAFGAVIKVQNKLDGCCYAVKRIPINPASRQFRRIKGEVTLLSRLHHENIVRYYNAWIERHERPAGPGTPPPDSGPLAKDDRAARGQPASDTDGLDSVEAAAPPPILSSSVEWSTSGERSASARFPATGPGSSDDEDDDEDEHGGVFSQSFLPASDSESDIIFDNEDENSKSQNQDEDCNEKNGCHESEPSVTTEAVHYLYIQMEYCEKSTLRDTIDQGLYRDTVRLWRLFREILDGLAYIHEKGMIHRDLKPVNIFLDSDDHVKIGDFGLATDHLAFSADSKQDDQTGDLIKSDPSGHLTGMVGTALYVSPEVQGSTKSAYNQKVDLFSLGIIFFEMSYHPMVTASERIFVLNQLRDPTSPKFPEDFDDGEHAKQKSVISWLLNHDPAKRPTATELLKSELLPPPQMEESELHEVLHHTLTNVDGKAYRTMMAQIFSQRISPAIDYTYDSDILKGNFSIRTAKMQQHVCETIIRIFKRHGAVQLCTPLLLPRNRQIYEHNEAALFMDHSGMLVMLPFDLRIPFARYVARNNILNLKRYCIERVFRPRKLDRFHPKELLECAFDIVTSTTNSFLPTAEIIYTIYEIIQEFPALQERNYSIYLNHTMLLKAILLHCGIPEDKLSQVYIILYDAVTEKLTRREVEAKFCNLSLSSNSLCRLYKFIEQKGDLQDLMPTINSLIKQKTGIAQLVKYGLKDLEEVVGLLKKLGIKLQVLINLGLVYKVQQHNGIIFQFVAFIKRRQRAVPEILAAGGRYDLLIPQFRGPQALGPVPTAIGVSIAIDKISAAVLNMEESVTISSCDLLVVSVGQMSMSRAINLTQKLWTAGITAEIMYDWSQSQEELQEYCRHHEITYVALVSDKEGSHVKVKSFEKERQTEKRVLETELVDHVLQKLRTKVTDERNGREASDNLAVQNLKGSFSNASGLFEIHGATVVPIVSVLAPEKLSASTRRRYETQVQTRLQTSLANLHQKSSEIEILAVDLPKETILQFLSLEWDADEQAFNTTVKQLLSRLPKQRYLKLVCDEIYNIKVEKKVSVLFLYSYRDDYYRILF
Sequence of intracellular GCN2 (phosphorylation of the GCN2 substrate eIF2α) (Q9P2K8 whole entry): as above

Row | SMILES | pIC50 [1] | pIC50 (GCN2 kinase) | pKi (GCN2 kinase)
1 | C[C@H]1CN(c2nc(-c3cnc4ccc(C(F)F)cn34)ns2)C[C@@H](CNS(C)(=O)=O)C1(F)F [I-103, N-(((3S,5S)-1-(3-(6-(difluoromethyl)imidazo[1,2-a]pyridin-3-yl)-1,2,4-thiadiazol-5-yl)-4,4-difluoro-5-methylpiperidin-3-yl)methyl)methanesulfonamide] | > 6.30 |  | > 8.00
2 | Cc1n[nH]cc1C1CC(F)CN(c2ccnc(-c3cnc4ccc(C(F)(F)F)cn34)n2)C1 (stereo not drawn) [I-357, 3-(4-(3-fluoro-5-(3-methyl-1H-pyrazol-4-yl)piperidin-1-yl)pyrimidin-2-yl)-6-(trifluoromethyl)imidazo[1,2-a]pyridine] | > 6.30 | 7.00 to 8.00 | 
3 | CC1CN(c2ccnc(-c3cnc4ccc(Cl)cn34)n2)CC(c2cnn(S(C)(=O)=O)c2)N1S(C)(=O)=O (stereo not drawn) [I-301, 6-chloro-3-(4-(3-methyl-4-(methylsulfonyl)-5-(1-(methylsulfonyl)-1H-pyrazol-4-yl)piperazin-1-yl)pyrimidin-2-yl)imidazo[1,2-a]pyridine] | 5.30 to 6.30 | 6.00 to 7.00 | 
4 | FC(F)(F)c1ccc2ncc(-c3nccc(N4CCN(Cc5cocn5)C(c5cn[nH]c5)C4)n3)n2c1 (stereo not drawn) [I-353, 4-((2-(1H-pyrazol-4-yl)-4-(2-(6-(trifluoromethyl)imidazo[1,2-a]pyridin-3-yl)pyrimidin-4-yl)piperazin-1-yl)methyl)oxazole] | > 6.30 | > 8.00 | 
5 | C[C@@H]1CN(c2nccc(-c3cnc4ccc(C(F)(F)F)cn34)n2)[C@H](C)C(c2cn[nH]c2)N1 (stereo partly drawn) [I-171, 3-(2-((2R,5R)-2,5-dimethyl-3-(1H-pyrazol-4-yl)piperazin-1-yl)pyrimidin-4-yl)-6-(trifluoromethyl)imidazo[1,2-a]pyridine] | > 6.30 | 7.00 to 8.00 | 
6 | Cc1oncc1[C@@H]1CN(c2ccnc(-c3cnc4ccc(C(F)(F)F)cn34)n2)C[C@H](C)O1 [I-346, (2S,6R)-2-methyl-6-(5-methylisoxazol-4-yl)-4-(2-(6-(trifluoromethyl)imidazo[1,2-a]pyridin-3-yl)pyrimidin-4-yl)morpholine] | > 6.30 | 7.00 to 8.00 | 
7 | NC(=O)[C@@H]1CN(c2ccnc(-c3cnc4ccc(C(F)(F)F)cn34)n2)CCN1C1CC1 [I-324, (S)-1-cyclopropyl-4-(2-(6-(trifluoromethyl)imidazzo[1,2-a]pyridin-3-yl)pyrimidin-4-yl)piperazine-2-carboxamide] | < 5.30 | 6.00 to 7.00 | 
8 | Cc1cc(-c2cnc3ccc(Cl)cn23)nc(N2C[C@H](C)O[C@@H](c3c[nH]nc3C)C2)n1 [I-220, (2S,6S)-4-(4-(6-chloroimidazo[1,2-a]pyridin-3-yl)-6-methylpyrimidin-2-yl)-2-methyl-6-(5-methyl-1H-pyrazol-4-yl)morpholine] | 5.30 to 6.30 | 7.00 to 8.00 | 
9 | C[C@H]1C[C@H](c2cn[nH]c2)CN(c2nccc(-c3cnc4ccc(C5CC5)cn34)n2)C1 [I-235, 6-cyclopropyl-3-(2-((3S,5R)-3-methyl-5-(1H-pyrazol-4-yl)piperidin-1-yl)pyrimidin-4-yl)imidazo[1,2-a]pyridine] | > 6.30 | 7.00 to 8.00 | 
10 | CN(C)C(=O)C1CCCN(c2ccnc(-c3cnc4ccc(C(F)(F)F)cn34)n2)C1 (stereo not drawn) [I-130, N,N-dimethyl-1-(2-(6-(trifluoromethyl)imidazo[1,2-a]pyridin-3-yl)pyrimidin-4-yl)piperidine-3-carboxamide] | 5.30 to 6.30 | 7.00 to 8.00 | 
11 | CN(CC1CCCN(c2ccnc(-c3cnc4ccc(Cl)cn34)n2)C1)S(C)(=O)=O (stereo not drawn) [I-283, N-((1-(2-(6-chloroimidazo[1,2-a]pyridin-3-yl)pyrimidin-4-yl)piperidin-3-yl)methyl)-N-methylmethanesulfonamide] | 5.30 to 6.30 | 7.00 to 8.00 | 
12 | Cn1cc(NC(=O)[C@H]2CCCN(c3ccnc(-c4cnc5cc(F)c(Cl)cn45)n3)C2)cn1 [I-59, (S)-1-[2-(6-Chloro-7-fluoro-imidazo[1,2-a]pyridine-3-yl)-pyrimidin-4-yl]-piperidine-3-carboxylic acid (1-methyl-1H-pyrazol-4-yl)-amide] | < 5.30 |  | 6.00 to 7.00

Now from value to molecule:

Row | pIC50 [1] | pIC50 (GCN2 kinase) | pKi (GCN2 kinase) | SMILES
13 | 5.30 to 6.30 | 7.00 to 8.00 |  | c1ccc(Oc2ccc3ncc(-c4nccc(N5CCC[C@@H](c6cn[nH]c6)C5)n4)n3c2)cc1 [I-399]
14 | > 6.30 | > 8.00 |  | FC(F)(F)CCN1CCN(c2ccnc(-c3cnc4ccc(C(F)(F)F)cn34)n2)CC1c1cn[nH]c1 (stereo not drawn) [I-449, 3-(4-(3-(1H-pyrazol-4-yl)-4-(3,3,3-trifluoropropyl)piperazin-1-yl)pyrimidin-2-yl)-6-(trifluoromethyl)imidazo[1,2-a]pyridine]
15 | > 6.30 | > 8.00 |  | COCC1(CN2CCN(c3ccnc(-c4cnc5ccc(C(F)(F)F)cn45)n3)[C@H](C)[C@@H]2c2cn[nH]c2)CCC1 (stereo in doubt) [I-511, 4-[(2R,3 S)-4-{[1-(methoxymethyl)cyclobutyl]methyl}-2-methyl-3-(1H-pyrazol-4-yl)piperazin-1-yl]-2-[6-(trifluoromethyl)imidazo[1,2-a]pyridin-3-yl]pyrimidine]
16 | 5.30 to 6.30 | 7.00 to 8.00 |  | CS(=O)(=O)NC1CC(C(F)(F)F)CN(c2nccc(-c3cnc4ccc(C(F)F)cn34)n2)C1 (stereo not drawn) [I-525, N-(1-(4-(6-(difluoromethyl)imidazo[1,2-a]pyridin-3-yl)pyrimidin-2-yl)-5-(trifluoromethyl)piperidin-3-yl)methanesulfonamide]
17 | < 5.30 | 6.00 to 7.00 |  | C[C@@H]1[C@H]([C@@H](C)NS(C)(=O)=O)N(C2CC2)CCN1c1ccnc(-c2cnc3ccc(C(F)(F)F)cn23)n1 [I-505, N—((R)-1-((2R,3R)-1-cyclopropyl-3-methyl-4-(2-(6-(trifluoromethyl)imidazo[1,2-a]pyridin-3-yl)pyrimidin-4-yl)piperazin-2-yl)ethyl)methanesulfonamide]
18 | 5.30 to 6.30 | 7.00 to 8.00 |  | C[C@H](NS(C)(=O)=O)[C@@H]1CN(c2ccnc(-c3cnc4ccc(C(F)(F)F)cn34)n2)CCO1 [I-407, N—((S)-1-((S)-4-(2-(6-(trifluoromethyl)imidazo[1,2-a]pyridin-3-yl)pyrimidin-4-yl)morpholin-2-yl)ethyl)methanesulfonamide]
19 | 5.30 to 6.30 | 7.00 to 8.00 |  | CC1(C)C[C@@H]1CN1CCN(c2ccnc(-c3cnc4ccc(C(F)(F)F)cn34)n2)C[C@@H]1c1cn[nH]c1 [I-527, 3-(4-((S)-4-(((S)-2,2-dimethylcyclopropyl)methyl)-3-(1H-pyrazol-4-yl)piperazin-1-yl)pyrimidin-2-yl)-6-(trifluoromethyl)imidazo[1,2-a]pyridine]
20 | 5.30 to 6.30 | 6.00 to 7.00 |  | C[C@@H]1[C@H](CNS(C)(=O)=O)N(C2CC2)[C@H](C)CN1c1ccnc(-c2cnc3ccc(C(F)(F)F)cn23)n1 (stereo in doubt) [I-494, N-(((2S,3R,6R)-1-cyclopropyl-3,6-dimethyl-4-(2-(6-(trifluoromethyl)imidazo[1,2-a]pyridin-3-yl)pyrimidin-4-yl)piperazin-2-yl)methyl)methanesulfonamide]
21 | > 6.30 | > 8.00 |  | FC(F)(F)c1ccc2ncc(-c3nccc(N4CCN(CC5C6COCC65)C(c5cn[nH]c5)C4)n3)n2c1 (stereo not drawn) [I-370, 3-(4-(4-((3-oxabicyclo[3.1.0]hexan-6-yl)methyl)-3-(1H-pyrazol-4-yl)piperazin-1-yl)pyrimidin-2-yl)-6-(trifluoromethyl)imidazo[1,2-a]pyridine]
